Data reported in ChEMBL document CHEMBL1127279, “1,3-Oxazino[4,5-b]indole-2,4-(1H,9H)-diones and 5,6-dimethylpyrrolo-[2,3-d]-1,3-oxazin-2,4-(1H,7H)-diones as serine protease inhibitors” (Bioorg Med Chem Lett, 1994).

target: T1, Neutrophil elastase (Homo sapiens, UniProt P08246); experiment: In vitro inhibition of human leukocyte elastase.; settings: not given
T1 sequence (P08246 whole entry): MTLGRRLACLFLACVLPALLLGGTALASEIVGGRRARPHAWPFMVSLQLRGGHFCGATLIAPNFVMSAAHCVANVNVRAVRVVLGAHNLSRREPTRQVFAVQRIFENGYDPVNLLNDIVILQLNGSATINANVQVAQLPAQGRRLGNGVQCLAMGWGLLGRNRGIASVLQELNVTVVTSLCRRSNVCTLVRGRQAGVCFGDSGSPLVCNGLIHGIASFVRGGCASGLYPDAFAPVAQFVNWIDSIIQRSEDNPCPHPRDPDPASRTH

Row | Structure (SMILES) | IC50 [µM]
1 | COc1ccc2c(c1)c1c(=O)oc(=O)[nH]c1n2C1CCCCC1 | > 1000
2 | COCCn1c2ccc(OC(C)=O)cc2c2c(=O)oc(=O)[nH]c21 | > 1000
3 | CCCn1c2ccc(OC)cc2c2c(=O)oc(=O)[nH]c21 | > 1000
4 | CCCCn1c(C)c(C)c2c(=O)oc(=O)[nH]c21 | > 1000
5 | CCCn1c2ccc(OC(C)=O)cc2c2c(=O)oc(=O)[nH]c21 | 665
6 | Cc1c(C)n(C2CCCCC2)c2[nH]c(=O)oc(=O)c12 | > 1000
7 | COC(Cn1c2ccc(OC(C)=O)cc2c2c(=O)oc(=O)[nH]c21)OC | 742
8 | COc1ccc2c(c1)c1c(=O)oc(=O)[nH]c1n2Cc1ccccn1 | > 1000
9 | COCCn1c2ccc(OC)cc2c2c(=O)oc(=O)[nH]c21 | > 1000
10 | CC(=O)Oc1ccc2c(c1)c1c(=O)oc(=O)[nH]c1n2CCc1ccccc1 | 92

The next lines start with the values.

Row | IC50 [µM] | Structure (SMILES)
11 | > 1000 | CCCCn1c2ccc(OC)cc2c2c(=O)oc(=O)[nH]c21
12 | > 1000 | COc1ccc2c(c1)c1c(=O)oc(=O)[nH]c1n2CC(OC)OC
13 | 454 | CC(=O)Oc1ccc2c(c1)c1c(=O)oc(=O)[nH]c1n2C1CCCCC1
14 | > 1000 | COc1ccc2c(c1)c1c(=O)oc(=O)[nH]c1n2Cc1ccccc1
15 | 305 | CC(=O)Oc1ccc2c(c1)c1c(=O)oc(=O)[nH]c1n2CCCc1ccccc1
16 | 810 | CCCCn1c2ccc(OC(C)=O)cc2c2c(=O)oc(=O)[nH]c21
17 | 75 | CC(=O)Oc1ccc2c(c1)c1c(=O)oc(=O)[nH]c1n2Cc1ccccc1
18 | 292 | CC(=O)Oc1ccc2c(c1)c1c(=O)oc(=O)[nH]c1n2Cc1ccccn1

target: T1, Neutrophil elastase; experiment: Inhibitory activity against human leukocyte elastase using MeO-Suc-Ala-Ala-Pro-Val-pNA (416 uM) as substrate; settings: not given

Row | IC50 [µM] | Structure (SMILES)
19 | > 1000 | COc1ccc2c(c1)c1c(=O)oc(=O)[nH]c1n2CCc1ccccc1
20 | 989 | COc1ccc2c(c1)c1c(=O)oc(=O)[nH]c1n2CCCc1ccccc1

target: T2, Chymotrypsinogen A (Bos taurus, UniProt P00766); experiment: Inhibitory activity against chymotrypsin using Suc-Ala-Ala-Pro-Phe-pNA (416 uM) as substrate; No Inhibition; set-up: species or system Sus scrofa; settings: not given

Row | IC50 | Structure (SMILES)
21 | Not Active | COC(Cn1c(C)c(C)c2c(=O)oc(=O)[nH]c21)OC
22 | Not Active | COCCn1c(C)c(C)c2c(=O)oc(=O)[nH]c21
23 | Not Active | CCCn1c(C)c(C)c2c(=O)oc(=O)[nH]c21
24 | Not Active | COCCn1c2ccc(OC)cc2c2c(=O)oc(=O)[nH]c21

target: T1, Neutrophil elastase; experiment: Inhibitory activity against human leukocyte elastase using MeO-Suc-Ala-Ala-Pro-Val-pNA (416 uM) as substrate;No Inhibition; settings: not given

Row | Structure (SMILES) | IC50
25 | COC(Cn1c(C)c(C)c2c(=O)oc(=O)[nH]c21)OC | Not Active
26 | CCCn1c(C)c(C)c2c(=O)oc(=O)[nH]c21 | Not Active
27 | Cc1c(C)n(CCc2ccccc2)c2[nH]c(=O)oc(=O)c12 | Not Active

Continued, values first:

Row | IC50 | Structure (SMILES)
28 | Not Active | COCCn1c(C)c(C)c2c(=O)oc(=O)[nH]c21
29 | Not Active | Cc1c(C)n(Cc2ccccc2)c2[nH]c(=O)oc(=O)c12
30 | Not Active | Cc1c(C)n(Cc2ccccn2)c2[nH]c(=O)oc(=O)c12

same assay, conditions: read-out: IC50

Row | IC50 [µM] | Structure (SMILES)
31 | 895 | Cc1c(C)n(CCCc2ccccc2)c2[nH]c(=O)oc(=O)c12

target: Pancreatic elastase (Sus scrofa, UniProt P08419+P00772); experiment: Inhibitory activity against porcine pancreatic elastase using Suc-Ala-Ala-Ala-pNA (416 uM) as substrate; format: protein assay; settings: not given

Row | IC50 [µM] | Structure (SMILES)
32 | > 1000 | CC(=O)Oc1ccc2c(c1)c1c(=O)oc(=O)[nH]c1n2CCCc1ccccc1
33 | > 1000 | CCCCn1c2ccc(OC(C)=O)cc2c2c(=O)oc(=O)[nH]c21
34 | 833 | CC(=O)Oc1ccc2c(c1)c1c(=O)oc(=O)[nH]c1n2CCc1ccccc1

target: T2, Chymotrypsinogen A; experiment: Inhibitory activity against chymotrypsin using Suc-Ala-Ala-Pro-Phe-pNA (416 uM) as substrate; set-up: species or system Sus scrofa; settings: not given

Row | IC50 [µM] | Structure (SMILES)
35 | 512 | COc1ccc2c(c1)c1c(=O)oc(=O)[nH]c1n2Cc1ccccn1

target: T2, Chymotrypsinogen A; experiment: Inhibitory activity against chymotrypsin using Suc-Ala-Ala-Pro-Phe-pNA (416 uM) as substrate;No Inhibition; set-up: species or system Sus scrofa; settings: not given

Row | IC50 | Structure (SMILES)
36 | Not Active | COCCn1c2ccc(OC(C)=O)cc2c2c(=O)oc(=O)[nH]c21
